Data reported in PubChem BioAssay (NCI).
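Tested at 5 concentrations; 48 h exposure; 96-well plates; endpoints linearly interpolated, else capped at highest concentration. GI50 is the concentration that inhibits growth by half. The concentration for full growth arrest is given as TGI.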

How the values were obtained:
Experiment in all cases: DTP human tumour cell line panel, 48 h
HS 578T breast = test system: HS 578T breast
MCF7 breast = test system: MCF7 breast
PC-3 prostate = test system: PC-3 prostate
MDA-N = test system: MDA-N
DLD-1 colon = test system: DLD-1 colon
HOP-18 NSCLC = test system: HOP-18 NSCLC
RXF-631 renal = test system: RXF-631 renal
DMS 114 small cell lung = test system: DMS 114 small cell lung
LXFL 529 NSCLC = test system: LXFL 529 NSCLC

| Compound | GI50 (HS 578T breast) [µM] | TGI (HS 578T breast) [µM] | GI50 (MCF7 breast) [nM] | TGI (MCF7 breast) [µM] | GI50 (PC-3 prostate) [nM] | TGI (PC-3 prostate) [µM] | TGI (MDA-N) [µM] | TGI (DLD-1 colon) [µM] | TGI (HOP-18 NSCLC) [µM] | TGI (RXF-631 renal) [µM] | TGI (DMS 114 small cell lung) [µM] | TGI (LXFL 529 NSCLC) [µM] |
| --- | --- | --- | --- | --- | --- | --- | --- | --- | --- | --- | --- | --- |
| COc1ccc(-n2cc(-c3ccc(Cl)cc3)[nH]c2=S)cc1Cl | 23.8 | 56.6 | 34300 | > 100 | 30700 | > 100 |  |  |  |  |  |  |
| CC(=O)NC1=NC(=O)/C(=C/c2ccc(Cl)cc2Cl)N1C |  | > 100 |  | > 100 |  | > 100 | > 100 |  |  |  |  |  |
| COC(=O)C1=C(O)C(C(=O)OC)[C@@]2(O)[C@@H](C(=O)OC)C(c3ccccc3C(F)(F)F)C[C@@H]1[C@@H]2C(=O)OC (stereo not given in full) | 3.87 | > 100 | 2990 | 12.1 | 6020 | 24.7 |  |  |  |  |  |  |
| OCCOCn1nc(-c2ccccc2)nc1-c1cnccn1 |  |  |  | > 100 |  | > 100 | > 100 |  |  |  |  |  |
| O=C(CCCCCn1c2ccccc2c2c3c(c4c5ccccc5[nH]c4c21)C(=O)N(O)C3=O)N1CCOCC1 | 2.78 | 7.95 | 1410 | > 100 | 2280 | 6.22 |  |  |  |  |  |  |
| COC(=O)C(=O)C(C(=O)C(=O)Nc1ccc(Cl)cc1Cl)c1nc2ccc(Cl)cc2[nH]c1=O (stereo not given) |  | > 100 |  | > 100 |  | > 100 |  |  |  |  |  |  |
| COc1ccc(/C=N\N2C(=O)Cc3ccccc32)cc1 |  |  |  |  |  |  |  | > 100 | > 100 |  |  |  |
| COc1ccc(-c2ccc(/C=N/n3cnn(CN4CCN(C)CC4)c3=S)o2)c([N+](=O)[O-])c1 | 22.5 | 75.4 | 28700 | 97.4 | 39300 | > 100 |  |  |  |  |  |  |
| Cc1c(Br)cccc1NC(=O)c1sc2nc3c(cc2c1N)CN(Cc1ccccc1)CC3 | 0.208 | 15.4 | 170 | > 50 | 204 | 22.4 |  |  |  |  |  |  |
| CC(=O)O/N=C1\C=Cc2c(no[n+]2[O-])C1=O |  | 56.3 |  | 45.4 |  | 32.3 | 33.1 |  |  |  |  |  |
| NC(N)=Nc1nc2cc(N)ccc2o1 |  |  |  |  |  |  |  | > 100 | > 100 | > 100 |  |  |
| CC([C@H]1CCC2C3CCC4C(=O)C(NC=O)=CC[C@]4(C)C3CC[C@@]21C)N(C)C (stereo not given in full) | 4.6 | 20.8 | 2430 | 14.1 | 2510 | 14.5 |  |  |  |  |  |  |
| COc1cc(Oc2cnc3cc(N)cc(N)c3n2)cc(OC)c1OC | 37.9 | > 100 | 35400 | > 100 | 32400 | > 100 |  |  |  |  |  |  |
| CC(C)n1c2c(c3ccccc3c1=O)C(=O)c1ccccc1-2 |  | > 100 |  | > 100 |  | > 100 | > 100 |  |  |  |  |  |
| N#CC1(Cc2ccccc2Cl)c2ccccc2C=CN1C(=O)c1ccccc1 (stereo not given) |  |  |  |  |  |  |  |  | > 100 |  | > 100 | > 100 |
| COc1cc(C2CC(c3ccc(C)cc3)=NN2C(C)=O)ccc1Oc1ccnc2cc(Cl)ccc12 (stereo not given) | 2.6 | > 100 | > 100000 | > 100 | > 100000 | > 100 |  |  |  |  |  |  |

| Compound | GI50 (HS 578T breast) [µM] | TGI (HS 578T breast) [µM] | GI50 (MCF7 breast) [nM] | TGI (MCF7 breast) [µM] | GI50 (PC-3 prostate) [nM] | TGI (PC-3 prostate) [µM] | TGI (MDA-N) [µM] | TGI (DLD-1 colon) [µM] | TGI (HOP-18 NSCLC) [µM] | TGI (RXF-631 renal) [µM] | TGI (DMS 114 small cell lung) [µM] | TGI (LXFL 529 NSCLC) [µM] |
| --- | --- | --- | --- | --- | --- | --- | --- | --- | --- | --- | --- | --- |
| CC(CC(C)[C@H]1CCC2[C@H]3C(CC[C@@]21C)[C@@]1(C)CCC(O)C[C@H]1C[C@@H]3O)C(=O)O (stereo not given in full) |  |  |  | > 100 |  | > 100 | > 100 |  |  |  |  |  |
| CCCCC#Cc1c(I)n(C2OC(CO[Si](C)(C)C(C)(C)C)C3OC(C)(C)OC32)c(=O)[nH]c1=O (stereo not given) | 11.7 | 39.6 |  |  | 2800 | 10.4 |  |  |  |  |  |  |
| COc1cc(C2C3=C(COC3=O)N(CCO)c3cc4c(cc32)OCCO4)cc(OC)c1O (stereo not given) | 1.14 | > 50 | 957 | > 50 | 2170 | > 50 |  |  |  |  |  |  |
| CN1CCN(c2nc(NCCNc3ccnc4cc(Cl)ccc34)c3ccccc3n2)CC1 | 2.74 | 9.58 | 1000 | 13.9 | 2070 | 14.3 |  |  |  |  |  |  |
| O=C(NCCc1ccccc1)C(c1csc2ccccc12)N(C(=O)CCl)c1ccc(-c2cnco2)cc1 (stereo not given) | 1.44 | 7.2 | 1430 | 3.26 | 511 | 1.9 |  |  |  |  |  |  |
| CCSc1sc(-c2ccc(C)cc2)nc1[P+](c1ccccc1)(c1ccccc1)c1ccccc1 | 0.394 | 2.05 |  |  | 231 | 1.14 |  |  |  |  |  |  |
| COc1cc(C=C2C(=O)OC(C)(C)OC2=O)cc(OC)c1OC |  |  |  |  |  |  |  | > 100 | > 100 |  | > 100 | > 100 |
| CCCCCCCC(=O)SCC/C=C/[C@@H]1CC(=O)NCc2cccc(n2)CN(Cc2ccc(Cl)cc2)CC(=O)N[C@@H](C(C)C)C(=O)O1 | 6.05 | 56.1 | 12100 | > 100 | 15900 | > 100 |  |  |  |  |  |  |
| COc1cc(OC)c(Oc2cccc(OC)c2OC)c(OC)c1 |  |  |  |  |  |  |  | > 100 | 89.5 |  | > 100 | > 100 |
| COC(=O)CC[C@@H](NC(=O)C(C)NC(=O)COC1C(O)C(COC(=O)CCCCCCCCCCNC(=O)c2ccc([N+](=O)[O-])c3[nH]c4cc(Br)ccc4c(=O)c23)OC(OCc2ccccc2)C1NC(C)=O)C(N)=O (stereo not given in full) |  |  |  |  |  |  |  | > 100 | > 100 |  | > 100 | 66.3 |
| c1cc(C2O[C@H]3CCCN3[C@@H]2c2ccncc2)ccn1 (stereo not given in full) |  |  |  |  |  |  |  | > 100 |  |  | > 100 | > 100 |
| O=C(O)C(=O)/C=C\c1ccc(Cl)cc1 |  |  |  |  |  |  |  | > 100 | > 100 |  | > 100 | > 100 |
| COc1ccc(OC)c(-c2cc(-c3ccc(Cl)cc3)nn2-c2ccc(S(N)(=O)=O)cc2)c1 | 21.9 | 63.1 | 3900 | 26.2 | 3620 | 15.7 |  |  |  |  |  |  |
| CCCCc1c2c(nc3c1CCc1cc(C=O)c(N)nc1-3)/C(=C/c1ccccc1)CCC2 |  |  |  |  |  |  |  |  | > 100 |  | > 100 | > 100 |
| COc1cc2c3c(c1OC)C1(C=CC(=O)C=C1)CC3N(C(=O)OC(C)(C)C(Cl)(Cl)Cl)CC2 (stereo not given) |  |  |  |  |  |  |  | 23.5 | 50.4 |  | 22 | 82.9 |
| NC(=O)c1ncn(C2CCC(CP(=O)(O)O)C2)c1N (stereo not given) |  | > 100 |  | > 100 |  | > 100 | > 100 |  |  |  |  |  |
